Experimental data: patent US7860552B2, “CNS assay for prediction of therapeutic efficacy for neuropathic pain and other functional illnesses” (The McLean Hospital Corporation, priority 2004, dated 2010)

Experiments:
neuropathic pain = settings: known efficacy in human neuropathic pain; cited from earlier work
healthy subjects = assay: fMRI of CNS activation in healthy subjects after a thermal stimulus (>44° C.); type: in vivo, human; settings: compared with the placebo response, FIG. 2
Description: The methods of the invention generally involve the administration of a therapeutic intervention, e.g., a compound, to a subject, e.g., a mammal such as a human, non-human primate, or a rodent (e.g., a rat or mouse). In one embodiment, an acute painful stimulus, e.g., a thermal stimulus, is then administered to the subject. An appropriate time delay may be used in order to achieve appropriate therapeutic effect in the blood and/or CNS prior to administration of the stimulus. Levels of activation of the central nervous system (CNS) of the subject are then measured, typically by a neuroimaging technique such as fMRI. When a therapeutic intervention is being evaluated for efficacy against the functional illness, the levels of activity are examined to determine whether the intervention alters activity in the CNS (FIG. 1). The levels of activity may be determined with reference to one or more specific regions of the CNS, such as those associated, either directly or indirectly with the functional illness, or a general level of activity for the entire CNS, or portion thereof, may be determined without reference to specific anatomical or functional regions. Any alteration in the level of activity may be determined relative to a control, such as levels of activity in a subject treated with placebo or a therapeutic intervention with known efficacy against the functional illness. The method is advantageous in that the subject need not be suffering from the functional illness in order to determine the efficacy of a therapeutic intervention for the illness. […]
The present invention typically employs an imaging technique for measuring the level of activation of the CNS, e.g., by determining blood flow in the CNS. […] In addition, the imaging methods may also be employed to determine a general level of activation for the CNS, e.g., measured as the total number of activated voxels., without regard to the specific regions involved. […]

rats = assay: fMRI of CNS activation in rats following heat stimulus; type: in vivo, rat; settings: compared to placebo group, FIG. 6, FIG. 7
Description: The methods of the invention may employ non-human mammals, e.g., rats, as the subjects, in which experimental therapeutic interventions are evaluated. […] The left panels show serial coronal slices through the brain. The overall level of activation was decreased in the gabapentin group compared to the placebo group. The right panels show differences in activation in specific circuitry known to be involved in pain processing that was affected in somatosensory regions (SI), emotional regions (nucleus accumbens—NAc), autonomic regions (hypothalamus), and endogenous analgesic regions (periaqueductal gray).

SMILES | Efficacy in neuropathic pain (neuropathic pain) | fMRI signal change (CNS activation) following the heat stimulus (healthy subjects) | Overall level of CNS activation (fMRI) (rats)
O=C1CN=C(c2ccccc2Cl)c2cc([N+](=O)[O-])ccc2N1 [clonazepam] | no efficacy |  | 
NCC1(CC(=O)O)CCCCC1 [gabapentin] | efficacy | decreasing signal change | decreased
CN(C)CCCN1c2ccccc2CCc2ccccc21 [imipramine] | efficacy | decreasing signal change | 
O=C(c1ccccc1)c1ccc2n1CCC2C(=O)O (stereo not shown) [ketorolac] | no efficacy |  | 
CS(=O)(=O)c1ccc(C2=C(c3ccccc3)C(=O)OC2)cc1 [rofecoxib] | no efficacy |  | 
CC1(C)O[C@@H]2[C@@H](CO[C@@]3(COS(N)(=O)=O)OC(C)(C)O[C@@H]23)O1 [topiramate] | efficacy | decreasing signal change | 
